From patent US11607422B2, “Uttroside B and derivatives thereof as therapeutics for hepatocellular carcinoma” (Rajiv Gandhi Centre for Biotechnology, an Autonomous …, priority 2016, dated 2023)

Key:
NF-κB in HepG2 cells = assay: Electrophoretic mobility shift assay of NF-κB; type: cell-based, human; conditions: HepG2 nuclear extract, EMSA
Procedure: Stocks of crude extracts and isolated compound of S. nigrum was prepared in DMSO for the in vitro studies and stored at −20° C. The DMSO concentration in all studies, including controls, was ≤0.2%. Cell viability assay was performed after 72 h of drug treatment while whole cell lysate preparation and cell cycle analysis were done after 24 h and 48 h of drug treatment. For studying NF-κB and AP-1, Uttroside B was incubated for 2 h before extraction.
Radiolabeling of oligonucleotide probes for electrophoretic mobility shift assay:HepG2 Cells were treated with Uttroside B for two hours, scraped and suspended in 150 μL of lysis buffer (10 mM HEPES(pH 7.9), 10 mM KCl, 0.1 mM EDTA, 0.1 mM EGTA, 1 mM DTT, 0.5 mMphenylmethylsulfonyl fluoride, 2 μg/mL leupeptin, 2 μg/mL aprotinin, 0.5 mg/ml benzamidine) for 30 min, after which 4.5 μl of 10% Nonidet P-40 was added. […]

Swiss albino mice = assay: Chronic toxicity study (3 months); type: in vivo
Procedure: Swiss albino mice were randomly divided into 2 groups of 6 animals each and were allowed to acclimatize for a week. Group I received vehicle and Group II received 10 mg/Kg body weight of Uttroside B. The compounds were given as intraperitonial injection on alternate days, thrice in a week, for 3 months. The animals were observed frequently during this period after which, the animals were euthanized in a CO2 chamber. The blood serum was collected for analyzing biochemical parameters of liver function, the abnormal values of which are indicative of hepatotoxicity. The liver was fixed in 10% buffered formalin and the thin cryostat sections were stained with haematoxylin and eosin for histopathological evaluation.^9

PC-12 = conditions: literature ref 13; read-out: IC50, cytotoxicity against PC-12; cited from earlier work
HepG2 cells = assay: Clonogenic assay in HepG2 cells; type: cell-based, human; conditions: 72 h treatment, then 1 week
Procedure: FIG. 2A is a graph comparison of IC50 of Uttroside B in a panel of cancer cells of different origin. The cancer cell lines HeLa, A375, HepG2, MDA-MB-231, HL 60, A549 and HCT116 were treated with Uttroside B as indicated, incubated for 72 h and the cell viability was assessed by MTT assay. FIG. 2B is a graph showing dose dependent effect of Uttroside B in the liver cancer cell lines and in normal immortalized hepatocytes. The liver cancer cell lines HepG2, Hep3B, SKHEP-1, Huh-7 and normal hepatocytes (Chang liver), were treated with Uttroside B incubated for 72 h and the cell viability was assessed by MTT assay. FIG. 2C is a graph comparison of IC50 of Uttroside B with sorafenib. HepG2 cells were treated with Uttroside B as indicated, incubated for 72 h, and the cell viability was assessed by MTT assay. FIG. 2D is an image of the morphological changes induced by Uttroside B in HepG2 cells. HepG2 cells were treated with Uttroside B as indicated and incubated for 72 h. FIG. 2E is an image showing Uttroside B inhibits the clonogenic potential of HepG2 cells. HepG2 cells were treated with different concentrations of Uttroside B for 72 h and the clonogenic assay was performed. […] The clones developed were counted and plotted as a graph. Colony containing more than four cells was counted as one clone. […]

In the case of `C[C@H](CC[C@@]1(O)O[C@H]2C[C@H]3[C@@H]4CC[C@H]5C[C@@H](O[C@@H]6O[C@H](CO)[C@H](O[C@@H]7O[C@H](CO)[C@@H](O)[C@H](O[C@@H]8OC[C@@H](O)[C@H](O)[C@H]8O)[C@H]7O[C@@H]7O[C@H](CO)[C@@H](O)[C@H](O)[C@H]7O)[C@H](O)[C@H]6O)CC[C@]5(C)[C@H]4CC[C@]3(C)[C@H]2[C@@H]1C)CO[C@@H]1O[C@H](CO)[C@@H](O)[C@H](O)[C@H]1O` [Uttroside B], the “constitutive activation of NF-κB” value (NF-κB in HepG2 cells) is reported as “could not produce any significant down-regulation”, the “histopathological analysis of liver tissue, chronic” value (Swiss albino mice; 10 mg/kg) is reported as “did not manifest any morphological change characteristic of toxicity” and the “total and differential WBC count, serum AST, ALT, ALP and BUN” value (Swiss albino mice; 10 mg/kg i.p. thrice weekly, 3 months) is reported as “no significant difference in any of these parameters from their normal range of values”. For the same molecule, the IC50 (PC-12) was 1200 nM and the “anti-clonogenic potential (colonies formed)” value (HepG2 cells) was “drastic dose dependent reduction in both number and size of the colonies formed”.
